# Results taken from US12364702B2, “Highly active sting protein agonist compound” (ADLAI NORTYE BIOPHARMA CO., LTD., priority 2018, dated 2025).
# pEC50: −log10 of the molar value. Where two headings read alike, the source gives them in different places.
# Assays:
# Format in all cases: cell-based
# [1] = molecular target: STING (Homo sapiens, UniProt Q86WV6); assay: IFN-β secretion from THP1 by STING activation (hIFNβ ELISA)
# In short: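 THP1 cells (2×10^6 cells/ml) exposed 24 h at 37° C, 5% CO2 to 8-point, 3-fold compound dilutions, 0.2% DMSO final, top dose set by solubility. Secreted IFN-β in supernatant measured by human IFNβ ELISA; EC50 from curve fitting.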
# [2] = molecular target: T1, STING HAQ variant (Homo sapiens, UniProt Q86WV6, G230A/R293Q/R71H); assay: SEAP reporter assay in HEK-Blue ISG KO-STING cells transfected with STING HAQ variant (Method 2); design: key: ratio of compound SEAP signal to 0.5% DMSO; conditions: 0.0625 ng STING vector (HAQ variant), compound 5 uM, 24 h, SEAP signal vs 0.5% DMSO
# T1 construct: host or cells: HEK-Blue ISG KO-STING cells (Invivogen, hkb-kostg)
# Excerpt: (§1) Activation of STING can be determined using a SEAP reporter assay in HEK-Blue™ ISG KO-STING cells (Invivogen, cat #hkb-kostg) transfected with plasmids expressing STING variants (WT & HAQ) (referred to WO2017/175147A1). STING variants (WT & HAQ) vector were constructed based on STING-232H vector (Origene, RC208418). GFP vector (VT2069) was bought from Youbio. The detailed protocol as follows: HEK-Blue™ ISG KO-STING cells were harvest and seeding into 96 well plate and the final cell number was 0.8×10^5 cells/well. Transfections were prepared using Lipofectamine 2000 (Invitrogen, Cat #11668-027) following the manufacturer's instructions (Lipo2000/DNA=1/10), 20 ul of transfection suspension containing 1 ng (WT variant) or 0.0625 ng (HAQ variant) STING vector was added to cell culture plate and incubated at 37° C., 5% CO2 for 24 hours. After 24 hours incubation, compounds were added at proper concentration, the final DMSO concentration was 0.5%. After 24 h incubation, the supernatant was collected to detect SEAP signal using Great EscAPe SEAP chemiluminescence KIT (Clontech, cat #631738) and cells were collected to detect cell viability using CellTiter-Glo Luminescent Cell Viability Assay (Promega, cat #G7573) following the manufacturer's instructions. The data were described by the ratio of the stimulating signal of compounds to 0.5% DMSO.
# [3] = molecular target: T2, STING WT variant (Homo sapiens, UniProt Q86WV6); assay: SEAP reporter assay in HEK-Blue ISG KO-STING cells transfected with STING WT variant (Method 2); design: key: ratio of compound SEAP signal to 0.5% DMSO; conditions: 1 ng STING vector (WT variant), compound 2.5 uM, 24 h, SEAP signal vs 0.5% DMSO
# T2 construct: host or cells: HEK-Blue ISG KO-STING cells (Invivogen, hkb-kostg)
# Excerpt: as §1
# [4] = THP1 cells; 24 h incubation; IFN-β in supernatant; top dose set according to solubility; read-out: hIFNβ ELISA (EC50)
# Chain of STING (Q86WV6 whole entry): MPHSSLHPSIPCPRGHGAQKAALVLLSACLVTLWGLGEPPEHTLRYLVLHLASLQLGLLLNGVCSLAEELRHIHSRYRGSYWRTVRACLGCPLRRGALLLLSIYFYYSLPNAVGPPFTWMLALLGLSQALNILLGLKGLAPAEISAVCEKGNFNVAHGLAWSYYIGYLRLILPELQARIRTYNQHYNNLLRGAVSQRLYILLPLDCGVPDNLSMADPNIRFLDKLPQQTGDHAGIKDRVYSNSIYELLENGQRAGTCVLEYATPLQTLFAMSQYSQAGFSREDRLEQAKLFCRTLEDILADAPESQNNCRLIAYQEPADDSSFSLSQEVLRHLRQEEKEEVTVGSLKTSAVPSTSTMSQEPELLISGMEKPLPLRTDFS
# T1 sequence (Q86WV6 whole entry R71H/G230A/R293Q): as the sequence (Q86WV6 whole entry) above, with R71H, G230A, R293Q counted along it
SMILES,"hIFNβ ELISA (EC50, μM) ([1]; THP1 cells; 24 h incubation; IFN-β in supernatant; top dose set according to solubility)",Fold change related to DMSO control HAQ [2],Fold change related to DMSO control WT [3],"pEC50 [1, 4]",pEC50 ([1]; read-out: hIFNβ ELISA (EC50); THP1 cells; 24 h incubation; IFN-β in supernatant; top dose set according to solubility)
"CCn1nc(C)cc1C(=O)Nc1nc2cc(C(N)=O)cc(OCCCNS(=O)(=O)CCN)c2n1CCC[C@H]1COc2cc(C(N)=O)cc3nc(NC(=O)c4cc(C)nn4CC)n1c23 [Example 44, (S)-3-(3-(7-(3-(2-aminoethylsulfonamido)propoxy)-5-carbamoyl-2-(1-ethyl-3-methyl-1H-pyrazole-5-carboxamido)-1H-benzo[d]imidazol-1-yl)propyl)-2-(1-ethyl-3-methyl-1H-pyrazole-5-carboxamido)-3,4-dihydro-5-oxa-1,2a-diazaacenaphthylene-7-carboxamide]",,31.46,6.47,< 4.40,
"CCn1nc(C)cc1C(=O)Nc1nc2cc(C(N)=O)cc(OCCCNC(=O)CN3CC[C@@H](OC)C3)c2n1CCC[C@H]1COc2cc(C(N)=O)cc3nc(NC(=O)c4cc(C)nn4CC)n1c23 [Example 39, (S)-3-(3-(5-carbamoyl-2-(1-ethyl-3-methyl-1H-pyrazole-5-carboxamido)-7-(3-(2-((R)-3-methoxypyrrolidin-1-yl)acetamido)propoxy)-1H-benzo[d]imidazol-1-yl)propyl)-2-(1-ethyl-3-methyl-1H-pyrazole-5-carboxamido)-3,4-dihydro-5-oxa-1,2a-diazaacenaphthylene-7-carboxamide]",,16.45,11.39,5.66,
"CCn1nc(C)cc1C(=O)Nc1nc2cc(C(N)=O)cc(OCCCNC(=O)CN3CCC(O)CC3)c2n1CCC[C@H]1COc2cc(C(N)=O)cc3nc(NC(=O)c4cc(C)nn4CC)n1c23 [Example 40, (S)-3-(3-(5-carbamoyl-2-(1-ethyl-3-methyl-1H-pyrazole-5-carboxamido)-7-(3-(2-(4-hydroxypiperidin-1-yl)acetamido)propoxy)-1H-benzo[d]imidazol-1-yl)propyl)-2-(1-ethyl-3-methyl-1H-pyrazole-5-carboxamido)-3,4-dihydro-5-oxa-1,2a-diazaacenaphthylene-7-carboxamide]",,13.94,7.82,5.33,
"CCn1nc(C)cc1C(=O)Nc1nc2cc(C(N)=O)cc(OCCCN)c2n1CCC[C@H]1COc2cc(C(N)=O)cc3nc(NC(=O)c4c(F)c(C)nn4CC)n1c23.Cl [Example 51, (S)-3-(3-(7-(3-aminopropoxy)-5-carbamoyl-2-(1-ethyl-3-methyl-1H-pyrazole-5-carboxamido)-1H-benzo[d]imidazol-1-yl)propyl)-2-(1-ethyl-4-fluoro-3-methyl-1H-pyrazole-5-carboxamido)-3,4-dihydro-5-oxa-1,2a-diazaacenaphthylene-7-carboxamide hydrochloride]",,11.97,9.66,,< 4.30
"CCn1nc(C)cc1C(=O)Nc1nc2cc(C(N)=O)cc(OCCCNC(=O)CN3CCC(OC)CC3)c2n1CCC[C@H]1COc2cc(C(N)=O)cc3nc(NC(=O)c4cc(C)nn4CC)n1c23 [Example 42, (S)-3-(3-(5-carbamoyl-2-(1-ethyl-3-methyl-1H-pyrazole-5-carboxamido)-7-(3-(2-(4-methoxypiperidin-1-yl)acetamido)propoxy)-1H-benzo[d]imidazol-1-yl)propyl)-2-(1-ethyl-3-methyl-1H-pyrazole-5-carboxamido)-3,4-dihydro-5-oxa-1,2a-diazaacenaphthylene-7-carboxamide]",,17.42,10.04,5.66,

# Now from value to molecule, other results behind:
"hIFNβ ELISA (EC50, μM) ([1]; THP1 cells; 24 h incubation; IFN-β in supernatant; top dose set according to solubility)",Fold change related to DMSO control HAQ [2],Fold change related to DMSO control WT [3],"pEC50 [1, 4]",SMILES,pEC50 ([1]; read-out: hIFNβ ELISA (EC50); THP1 cells; 24 h incubation; IFN-β in supernatant; top dose set according to solubility)
inactive,9.16,9.80,,"CCn1nc(C)cc1C(=O)Nc1nc2cc(C(N)=O)cc(OCCCNC(=O)CN3CCOCC3)c2n1CCC[C@H]1COc2cc(C#N)cc3nc(NC(=O)c4cc(C)nn4CC)n1c23 [Example 47, (S)-1-(3-(7-cyano-2-(1-ethyl-3-methyl-1H-pyrazole-5-carboxamido)-3,4-dihydro-5-oxa-1,2a-diazaacenaphthylen-3-yl)propyl)-2-(1-ethyl-3-methyl-1H-pyrazole-5-carboxamido)-7-(3-(2-morpholinoacetamido)propoxy)-1H-benzo[d]imidazole-5-carboxamide]",
,26.34,11.71,5.92,"CCn1nc(C)cc1C(=O)Nc1nc2cc(C(N)=O)cc(OCCCNC(=O)CN3CCOCC3)c2n1CCC[C@H]1COc2cc(C(N)=O)cc3nc(NC(=O)c4c(Cl)c(C)nn4CC)n1c23 [Example 55, (S)-3-(3-(5-carbamoyl-2-(1-ethyl-3-methyl-1H-pyrazole-5-carboxamido)-7-(3-(2-morpholinoacetamido)propoxy)-1H-benzo[d]imidazol-1-yl)propyl)-2-(4-chloro-1-ethyl-3-methyl-1H-pyrazole-5-carboxamido)-3,4-dihydro-5-oxa-1,2a-diazaacenaphthylene-7-carboxamide]",
,12.84,10.68,< 5.16,"CCn1nc(C)cc1C(=O)Nc1nc2cc(C#N)cc(OCCCNC(=O)CN3CCOCC3)c2n1CCC[C@H]1COc2cc(C(N)=O)cc3nc(NC(=O)c4cc(C)nn4CC)n1c23 [Example 46, (S)-3-(3-(5-cyano-2-(1-ethyl-3-methyl-1H-pyrazole-5-carboxamido)-7-(3-(2-morpholinoacetamido)propoxy)-1H-benzo[d]imidazol-1-yl)propyl)-2-(1-ethyl-3-methyl-1H-pyrazole-5-carboxamido)-3,4-dihydro-5-oxa-1,2a-diazaacenaphthylene-7-carboxamide]",
,18.32,11.79,< 4.30,"CCn1nc(C)cc1C(=O)Nc1nc2cc(C(N)=O)cc(OCCCNC(=O)CN(C)C)c2n1CCC[C@H]1COc2cc(C(N)=O)cc3nc(NC(=O)c4c(F)c(C)nn4CC)n1c23 [Example 52, (S)-3-(3-(5-carbamoyl-7-(3-(2-(dimethylamino)acetamido)propoxy)-2-(1-ethyl-3-methyl-1H-pyrazole-5-carboxamido)-1H-benzo[d]imidazol-1-yl)propyl)-2-(1-ethyl-4-fluoro-3-methyl-1H-pyrazole-5-carboxamido)-3,4-dihydro-5-oxa-1,2a-diazaacenaphthylene-7-carboxamide]",
,19.74,13.02,5.28,"CCn1nc(C)cc1C(=O)Nc1nc2cc(C(N)=O)cc(OCCCNC(=O)CN(C)C)c2n1CCC[C@H]1COc2cc(C(N)=O)cc3nc(NC(=O)c4c(Cl)c(C)nn4CC)n1c23 [Example 54, (S)-3-(3-(5-carbamoyl-7-(3-(2-(dimethylamino)acetamido)propoxy)-2-(1-ethyl-3-methyl-1H-pyrazole-5-carboxamido)-1H-benzo[d]imidazol-1-yl)propyl)-2-(4-chloro-1-ethyl-3-methyl-1H-pyrazole-5-carboxamido)-3,4-dihydro-5-oxa-1,2a-diazaacenaphthylene-7-carboxamide]",
,23.35,11.24,5.59,"CCn1nc(C)cc1C(=O)Nc1nc2cc(C(N)=O)cc(OCCCO)c2n1CCC[C@H]1CN(C)c2cc(C(N)=O)cc3nc(NC(=O)c4cc(C)nn4CC)n1c23 [Example 57, (S)-4-(3-(5-carbamoyl-2-(1-ethyl-3-methyl-1H-pyrazole-5-carboxamido)-7-(3-hydroxypropoxy)-1H-benzo[d]imidazol-1-yl)propyl)-2-(1-ethyl-3-methyl-1H-pyrazole-5-carboxamido)-6-methyl-5,6-dihydro-4H-imidazo[1,5,4-de]quinoxaline-8-carboxamide]",
,21.63,4.43,< 4.30,"CCn1nc(C)cc1C(=O)Nc1nc2cc(C(N)=O)cc(OCCCNS(=O)(=O)C3CCNCC3)c2n1CCC[C@H]1COc2cc(C(N)=O)cc3nc(NC(=O)c4cc(C)nn4CC)n1c23 [Example 45, (S)-3-(3-(5-carbamoyl-2-(1-ethyl-3-methyl-1H-pyrazole-5-carboxamido)-7-(3-(piperidine-4-sulfonamido)propoxy)-1H-benzo[d]imidazol-1-yl)propyl)-2-(1-ethyl-3-methyl-1H-pyrazole-5-carboxamido)-3,4-dihydro-5-oxa-1,2a-diazaacenaphthylene-7-carboxamide]",
